Activity calls are given as the source filed them. The calls are words filed in the database; no cut-off is given here.
Test: Competitive inhibition of human N-terminally His6-tagged N-acetylglucosaminyltransferase 3 expressed in HEK293T cells assessed as GN-GnGnbi-PAs molar ratio level at 100 to 500 uM incubated for 4 hrs using GnGnbi-PA acceptor substrate and UDP-GlcNAc donor substrate by reverse phase HPLC method
Settings: HEK-293T

| inhibition | Compound |
| --- | --- |
| Active | CO[C@H]1O[C@H](CO[C@H]2O[C@H](CO)[C@@H](O)[C@H](O)[C@@H]2O[C@@H]2O[C@H](CO)[C@@H](O)[C@H](O)[C@H]2NC(C)=O)[C@@H](O[C@@H]2O[C@H](CO)[C@@H](O)[C@H](O)[C@H]2NC(C)=O)[C@H](O[C@H]2O[C@H](CO)[C@@H](O)[C@H](O)[C@@H]2O[C@@H]2O[C@H](CO)[C@@H](O)[C@H](O)[C@H]2NC(C)=O)[C@@H]1O |
| Active | CO[C@H]1O[C@H](CO[C@H]2O[C@H](CO)[C@@H](O)[C@H](O)[C@@H]2O[C@@H]2O[C@H](CO)[C@@H](O)[C@H](O)[C@H]2NC(C)=O)[C@@H](O)[C@H](O[C@H]2O[C@H](CO)[C@@H](O)[C@H](O)[C@@H]2O[C@@H]2O[C@H](CO)[C@@H](O)[C@H](O)[C@H]2NC(C)=O)[C@@H]1O |
| inactive | CO[C@H]1O[C@H](CO[C@H]2O[C@H](CO)[C@@H](O)[C@H](O)[C@@H]2O)[C@@H](O[C@@H]2O[C@H](CO)[C@@H](O)[C@H](O)[C@H]2NC(C)=O)[C@H](O[C@H]2O[C@H](CO)[C@@H](O)[C@H](O)[C@@H]2O)[C@@H]1O |
| inactive | CO[C@H]1O[C@H](CO[C@H]2O[C@H](CO)[C@@H](O)[C@H](O)[C@@H]2O)[C@@H](O)[C@H](O[C@H]2O[C@H](CO)[C@@H](O)[C@H](O)[C@@H]2O)[C@@H]1O |

— ChEMBL document CHEMBL3352687, “Synthesis of N-glycan units for assessment of substrate structural requirements of N-acetylglucosaminyltransferase III” (Bioorg Med Chem Lett, 2014)
